Data: patent publication US20190125735A1, “INHIBITION OF P38 MAPK FOR THE TREATMENT OF CANCER” (Board of Regents, The University of Texas System, priority 2015, published 2019)
Read-outs that look alike come from different tables or passages of the source. One block for each compound: values may come before it. Where a SMILES comes first, the peptide text is derived from it. The star is where a group is joined. Cbz = O=C(OCc1ccccc1)*

What was measured:
HMLER-Snail cells = assay: Sphere formation in ultra-low attachment plates, HMLER-Snail cells; assay type: cell-based; details: Homo sapiens, cultured 7-10 days, spheres >75 μm, read-out: Concentration of the drug that induced 50% reduction in sphere formation
Description: (§1) (A) HMLER-Snail cells were treated with various p38 inhibitors. Cells were seeded in ultra-low attachment plates and cultured for 7-10 days. Spheres with a diameter greater than […] were counted. The data are reported as the number of spheres formed/1000 seeded cells±SEM. […] (B) SUM159 cells were treated with various p38 inhibitors. Cells were seeded in ultra-low attachment plates and cultured for 7-10 days. Spheres with a diameter greater than 75 μm were counted. The data are reported as the number of spheres formed/1000 seeded cells±SEM. […] (C) HMLE-Snail cells were treated with various p38 inhibitors. Cells were seeded in ultra-low attachment plates and cultured for 7-10 days. Spheres with a diameter greater than 75 μm were counted. The data are reported as the number of spheres formed/1000 seeded cells±SEM. […] (D) Western blots of HMLER-Snail cell treatment with various p38 inhibitors on Day 2 of treatment.

SUM159 cells = assay: Sphere formation in ultra-low attachment plates, SUM159 cells; assay type: cell-based; details: Homo sapiens, cultured 7-10 days, read-out: Concentration of the drug that induced 50% reduction in sphere formation
Description: as §1

HMLE-Snail cells = assay: Sphere formation in ultra-low attachment plates, HMLE-Snail cells; assay type: cell-based, human; details: cultured 7-10 days; for IC50: Homo sapiens, read-out: Concentration of the drug that induced 50% reduction in sphere formation
Description: as §1

[1] = tested on: BCR-ABL+ mouse ALL cells seeded on MSCs (OP9 cells); assay: Clinical compound library screen, imatinib-pretreated MSC / BCR-ABL+ ALL cell co-culture; assay type: cell-based
Description: The effectiveness of the compounds was determined in preventing cluster formation by microscopy and the toxicity of the compounds by bioluminescence imaging of co-cultured MSCs and leukemic cells.
The clinical compounds library was purchased from the John S. Dunn Gulf Coast Consortium for Chemical Genomics (Houston, Tex.). […] Then, luciferase-labeled BCR-ABL+ mouse ALL cells were seeded on to the MSCs. Treatment was continued for 1 day, and the samples were evaluated via phase-contrast microscopy for the formation of leukemic cell clusters underneath the pretreated MSCs. To determine the compounds' toxicity in MSCs or leukemic cells, we examined the MSC/ALL cell co-cultures via microscopy and/or bioluminescence imaging.
Phase-contrast images of co-cultured MSCs and ALL cells were obtained using an Axio Observer.Z1 microscope, an AxioCam MR camera, and AxioVision software (Zeiss, Oberkochen, Germany). For screening, a cluster was defined as a group of more than five leukemic cells under the MSCs. The total number of leukemic cell clusters was the average number of clusters from three different fields (10× objective). For post-screening experiments, a cluster was defined as a group of more than 10 leukemic cells under the MSCs. The total number of leukemic cell clusters was the average number of clusters from 10 different fields (10× objective).

FOXC2 protein = assay: Western blots of FOXC2 protein in HMLER-Snail cells; assay type: cell-based; details: Homo sapiens, 48 h, Day 2 of treatment, read-out: Concentration of the drug that induced 50% reduction in FOXC2 protein
Description: as §1

FOXC2 = FOXC2 protein levels by immunoblotting in mammary cell lines; assay type: cell-based, human; details: pre-treatment with 10 μM MG132
Description: Immortalized human mammary epithelial (HMLE) cells expressing empty vector (pWZL), Snail, Twist, Goosecoid (GSC), or an activated form of TGFβ1, V12H-Ras-transformed HMLE (HMLER) and HMLER-FOXC2 cells were maintained as previously described (Elenbaas et al., 2001) For 4-hydroxy-tamoxifen (4-OHT) treatment, HMLE-Snail-ER or HMLE-Twist-ER cells were exposed to 20 nM 4-OHT for the indicated number of days. MCF7, MDA-MB-231 and SUM159 human breast cancer cells and the 4T1 mouse mammary carcinoma cells were cultured as described. Human non-tumorigenic MCF10A cells were cultured as described (Hollier et al., 2013), and treated with 2.5 ng/ml TGFβ1 for 3 days to elicit EMT.
Immunoblotting and immunofluorescence (Mani et al., 2008) were performed as previously described. Primary antibodies were as follows: β-actin (Sigma, St Louis, Mo., USA; A3853), mouse anti-human FOXC2 (Dr. Naoyuki Miura, Hamamatsu University School of Medicine, Japan), goat polyclonal anti-FOXC2 (Santa Cruz Biotechnology, Dallas, Tex., USA; sc-21397), p-p38 (Cell Signaling, Danvers, Mass., USA; 4511), p38 (Cell Signaling; 9211), E-cadherin (BD Biosciences, San Jose, Calif., USA; 61081), fibronectin (BD Biosciences; 610077), vimentin (Novus Biologicals, Littleton, Colo., USA; NB200-623), ZEB1 (Novus Biologicals; NBP1-05987), and HA (Covance, Princeton, N.J., USA; MMS-101P).

DU145 cells [2] = assay: MTS cell survival assay, DU145 cells; assay type: cell-based, human
Description: (§2) Immunoblotting, Immunofluorescence, RTPCR, wound healing- and tumorsphere assays were performed as previously described (Sarkar et al., 2015). Cell viability (MTS) was assessed using the CellTiter96 Aqueous One-Solution Cell Proliferation Assay kit (Promega).

LNCaP cells = assay: MTS cell survival assay, LNCaP cells over-expressing FOXC2; assay type: cell-based, human; details: LNCaP cells with FOXC2 expression
Source text: Since FOXC2 is induced downstream of several different EMT inducers, and is by itself capable of potentiating the effects of multiple independent EMT signals (Taube et al., 2010), it was queried how ectopic expression of FOXC2 would impact the behavior of epithelial-like LNCaP cells, which are androgen-dependent. […] Again, FOXC2-induced EMT was associated with a reduction in PSA-promoter activity (as determined by loss in GFP) (FIG. 3A-lower panel), as well as loss in AR expression (FIGS. 3B,C).
as §2

DU145 cells [3] = assay: DU145 subcutaneous tumors in NOD/SCID mice; assay type: in vivo; details: subcutaneous dosing 5 days/week; SB203580 0.2 μmols per mouse, Enzalutamide 10 mg/kg; vs vehicle
Description: To investigate the effect of inhibition of FOXC2-dependent EMT/CSC attributes on tumor formation in vivo, NOD/SCID mice were subcutaneously injected with DU145 cells and began treatment in vivo, after formation of palpable tumors.
Immediately after sacrificing the mice, ˜100 μl blood was isolated via venipuncture in EDTA-treated collection tubes and stored on ice. Within 30 minutes, the blood was spun down at 1200 rpm for 5 minutes, and the pellet resuspended in 1 ml ACK-lysing buffer (Life Tech) and further incubated for 3-5 minutes. Cells were washed once with PBS, resuspended in RPMI with 10% FBS and pen/strep, and cultured on 10 cm tissue culture dishes. RFP-positive colonies (originating from the labeled DU145 cells injected into mice) were counted after 3-4 days in culture and quantified.
˜4 week-old male NOD.CB17-Prkdcscid/J mice were purchased from the Jackson Laboratory (Maine, USA). […] Once palpable tumors were discernable, tumor-bearing mice were randomly segregated into 4 groups, and drug treatment was initiated every 24 hours for 5 days/week. […] Investigators were blinded to the group allocation while assessing experimental outcomes. At the end of the treatment period, tumors were excised, average diameter calculated using calipers, and tumor weight noted. […]

DU145 cells [4] = details: parental DU145 cells, even at 10 μM; cited from earlier work
DU145 cells [5] = assay: Morphology and marker expression (qRTPCR, immunoblotting, IF) in DU145 cells; assay type: cell-based, human; details: DU145, LY364947 1 μM
Description: (§3) Cell lines: Authenticated LNCaP, DU145, and PC3 cells were procured from ATCC and cultured in RPMI with 10% fetal bovine serum (FBS) with penicillin/streptomycin. Cells overexpressing EMT transcription factors and shRNA were also cultured in the same media. HEK293T cells were cultured in DMEM with 10% FBS and penicillin/streptomycin. All cell lines used for this study were recently confirmed negative for mycoplasma contamination.
as §2

DU145 cells [6] = assay: Tumorsphere assay, DU145 cells; assay type: cell-based, human; details: DU145, LY364947 1 μM
Description: as §3, §2

[7] = imatinib 5 μM + compound 6.6 μM (dexamethasone 50 nM), 3 days pretreatment + 1 day

SMILES: Cc1ccc(NC(=O)c2ccc(CN3CCN(C)CC3)cc2)cc1Nc1nccc(-c2cccnc2)n1 [imatinib]
- Phosphorylation of PDGFR-α/β (MSCs): reduced phosphorylation of PDGFR-α/β
- Phosphorylation of ATF2 (MSCs; vs control): higher phosphorylation of ATF2 than control

- IC50 (HMLER-Snail cells): 50000 nM
- IC50 (SUM159 cells): 50000 nM
SMILES: NC(=O)c1ccc(N(C(N)=O)c2c(F)cccc2F)nc1-c1ccc(F)cc1F [VX-702]
- Inhibition of sphere formation (HMLE-Snail cells): did not inhibit sphere formation
- Imatinib-induced leukemic cell cluster formation [1, 7]: directly prevented imatinib-induced leukemic cell cluster formation

SMILES: O=C1NC(=O)c2c1c1c3ccccc3n3c1c1c2c2ccccc2n1C1CCC3O1 [SB218078]
- Imatinib-induced leukemic cell cluster formation [1, 7]: directly prevented imatinib-induced leukemic cell cluster formation

- IC50 (HMLER-Snail cells): 10 nM
- IC50 (SUM159 cells): 100 nM
- IC50 (HMLE-Snail cells): 300 nM
- IC50 (FOXC2 protein): 50 nM
SMILES: CNC(=O)c1ccc(C)c(-n2c(C)cc(OCc3ccc(F)cc3F)c(Br)c2=O)c1 [PH797804]

SMILES: CC(C)C[C@@H](C=O)NC(=O)[C@H](CC(C)C)NC(=O)[C@H](CC(C)C)NC(=O)OCc1ccccc1 [MG132] (Cbz-Leu-Leu-Leu-aldehyde)
- Proteolytic degradation of FOXC2 following SB203580 treatment (FOXC2): rescued the proteolytic degradation of FOXC2

SMILES: CNC(=O)c1ccc(N2C(=S)N(c3ccc(C#N)c(C(F)(F)F)c3)C(=O)C2(C)C)cc1F [Enzalutamide]
- Sensitivity of cells to the drug (cell survival) (DU145 cells [2]; DU145 with FOXC2 suppression, 100 nM Enzalutamide): more sensitive
- Resistance of cells to the drug (cell survival) (LNCaP cells): increasingly resistant
- Tumor size (volume and weight) (DU145 cells [3]): no appreciable change in tumor size
- Sensitivity of cells to the drug (DU145 cells [4]): insensitive

SMILES: COc1cc2c(cc1OC)[C@@H]1C(=O)c3ccc4c(c3O[C@@H]1CO2)C=CC(C)(C)O4 [DEGUELIN]
- Imatinib-induced leukemic cell cluster formation [1, 7]: directly prevented imatinib-induced leukemic cell cluster formation

- IC50 (HMLER-Snail cells): 10 nM
- IC50 (SUM159 cells): 300 nM
- IC50 (HMLE-Snail cells): 3000 nM
SMILES: CC(C)(C)Cn1c(N)nc2ccc(-c3[nH]c(C(C)(C)C)nc3-c3ccc(F)cc3)nc21 [LY2228820]

SMILES: c1ccc(-c2[nH]ncc2-c2ccnc3ccccc23)nc1 [LY364947]
- FOXC2 expression and p38 signaling (DU145 cells [5]): concomitant loss in FOXC2 expression and p38 signaling
- Tumorsphere-forming capacity (DU145 cells [6]): markedly reduced tumorsphere-forming capacity

SMILES: CNCc1ccc(-c2[nH]c3cc(F)cc4c3c2CCNC4=O)cc1 [AG014699]
- Imatinib-induced leukemic cell cluster formation [1, 7]: eliminated the leukemic cell clusters by eliciting toxicity toward clustered leukemic cells

SMILES: C[C@@H](N)[C@H]1CC[C@H](C(=O)Nc2ccncc2)CC1 [Y-27632]
- Imatinib-induced leukemic cell cluster formation [1, 7]: directly prevented imatinib-induced leukemic cell cluster formation

SMILES: CC(=O)O[C@@]12CO[C@@H]1C[C@H](O)[C@@]1(C)C(=O)[C@H](O)C3=C(C)[C@@H](OC(=O)[C@H](O)[C@@H](NC(=O)OC(C)(C)C)c4ccccc4)C[C@@](O)([C@@H](OC(=O)c4ccccc4)[C@H]21)C3(C)C [Docetaxel]
- Susceptibility of cells to the drug (cell survival) (DU145 cells [2]; DU145 with loss of FOXC2 expression, 100 nM Docetaxel): more susceptible
- Resistance of cells to the drug (cell survival) (LNCaP cells): increasingly resistant

SMILES: Cc1c[nH]c(-c2cnc(NCCNc3ccc(C#N)cn3)nc2-c2ccc(Cl)cc2Cl)n1 [CHIR99021]
- Imatinib-induced leukemic cell cluster formation [1, 7]: directly prevented imatinib-induced leukemic cell cluster formation

SMILES: Cc1ccc([N+](=O)[O-])cc1S(=O)(=O)N(C)/N=C/c1cnc2ccc(Br)cn12 [PIK75]
- Imatinib-induced leukemic cell cluster formation [1, 7]: eliminated the leukemic cell clusters by eliciting toxicity toward clustered leukemic cells

SMILES: Oc1ccc(-c2nc(-c3ccc(F)cc3)c(-c3ccncc3)[nH]2)cc1 [SB202190, 4-(4-fluorophenyl)-2-(4-hydroxyphenyl)-5-(4-pyridyl)-1H-imidazole]
- Imatinib-induced leukemic cell cluster formation [1, 7]: directly prevented imatinib-induced leukemic cell cluster formation

SMILES: CN1CCN(c2ccc3nc(-c4c(N)c5c(F)cccc5[nH]c4=O)[nH]c3c2)CC1 [CHIR258]
- Imatinib-induced leukemic cell cluster formation [1]: eliminated the leukemic cell clusters by eliciting toxicity toward clustered leukemic cells

SMILES: O=C(c1cc(Cc2n[nH]c(=O)c3ccccc23)ccc1F)N1CCN(C(=O)C2CC2)CC1 [AZD2281]
- Imatinib-induced leukemic cell cluster formation [1, 7]: eliminated the leukemic cell clusters by eliciting toxicity toward clustered leukemic cells
